One experiment concerns ESR1m ctDNA. Put plainly: SERENA-2 phase 2 study: changes in ESR1m ctDNA summed Variant Allele Frequency (sVAF %). The format is in vivo, human (post-menopausal women). From the text:
FIG. 6: Changes in ESR1m ctDNA summed Variant Allele Frequency (sVAF %) by treatment group and visit comparisons (pre-treatment is a comparison of samples collected at screening and cycle 1 day 1, C×D1 are comparisons of samples collected at cycle 1 day 1 and cycle×day 1). Variants defined as ESR1m are E380Q, V422del, S463P, L536H/P/R, Y537C/D/N/S. Points represent individual patients, box represents upper quartile, median and lower quartile, whiskers represent 1.5 interquartile range. Treatment with camizestrant 75 mg and 150 mg caused a 100% or near 100% reduction in the level of ESR1m at all timepoints.
Blood and plasma samples for circulating tumour (ctDNA) and cancer antigen 15-3 (CA15-3) analyses will be collected at screening, on Day 1 and Day 15 of Cycle 1, on Day 1 of Cycles 2 to 5, 8-weekly (Day 1 of every 2nd cycle) from Week 25 (Cycle 7) to coincide with tumour imaging, at the EOT and/or disease progression.
The following samples for biomarker research are optional and will collected from patients in the study where possible as specified in the SoA (Table 6). • Paired tumour biopsy samples; pre- and on-treatment. Samples will be collected for patients with tumours amenable to biopsies in up to 12 patients per treatment group. • Additional tumour biopsy samples may be collected at time of progression. Blood samples for circulating tumour DNA. […]

Experiment [1] relates to HR+, HER2− metastatic or loco-regionally recurrent breast cancer. Put plainly: SERENA-2 phase 2 study: progression free survival (PFS), RECIST 1.1, assessed by Investigator. Type of experiment: in vivo, human (post-menopausal women). From the text: In embodiments of the present speciation the method of treatments, ngSERD for use in treatment or for use in the manufacture of a medicament, kit or pharmaceutical composition for use delivers an improvement in the time to disease progression or progression free survival (PFS) relative to that obtained from use of fulvestrant (the first generation SERD). In such embodiment the PFS improvement is relative to that observed with standard of care, i.e. fulvestrant administered at the approved dose of 500 mg once monthly by injection. Clinical activity as assessed by PFS can be determined by the standard assessment of tumour response as per RECIST 1.1 (Eisenhauser et al., Eur J Cancer 2009 January; 45(2):228-47). The RECIST criteria can be evaluated by the treating physician/investigator or by Blinded Independent Central Review (BICR).
In the SERENA-2 clinical trial, further details of which are provided below, the efficacy of camizestrant administered once daily in tablet form at doses of 75 mg and 150 mg as a treatment for patients with HR+, HER2− metastatic or loco-regionally recurrent breast cancer that the breast cancer has recurred or progressed following at least one prior line of endocrine therapy was assessed. The control arm patient in this study were treated with standard of care fulvestrant, the first generation SERD, administered as once monthly 500 mg injection. The study was powered to differentiate between the camizestrant and standard of care, fulvestrant (F), treatment arms, but was not powered to differentiate between the 75 mg and 150 mg camizestrant dose cohorts.
A randomised, open-label, parallel-group, multicentre phase 2 study comparing the efficacy and safety of oral AZD9833 versus fulvestrant in women with advanced er-positive her2-negative breast cancer was carried out according to the following protocol and schedule of activities. The study evaluated the efficacy and safety of AZD9833 (75, 150 and 300 mg, oral [PO]) administered once daily as a monotherapy in comparison with fulvestrant administered according to its label (i. e., slow IM injection into the buttocks [1 to 2 minutes per injection] as two 5-mL injections, 1 in each buttock, on Day 1, Day 15, Day 29 and 4-weekly thereafter).
This is a randomised, open-label, parallel-group, multicentre Phase 2 study to compare the efficacy and safety of daily PO AZD9833 versus IM fulvestrant in women with advanced ER positive HER2 negative breast cancer. Post-menopausal women with histologically or cytologically confirmed metastatic or loco-regionally recurrent disease before randomisation and fulfilling all of the inclusion criteria and none of the exclusion criteria will be included. Randomisation will be stratified according to the prior use of CDK4/6 inhibitors and the presence of liver and/or lung metastases.
After the screening visit and confirmation of eligibility, patients will be randomly assigned in a 1:1:1:1 ratio to receive 1 of the following 4 treatments, consisting in 4-week treatment cycles until disease progression (assessed by the Investigator as defined by Response Evaluation Criteria in Solid Tumours [RECIST] version 1.1): • AZD9833 (75 mg, PO, once daily) • AZD9833 (150 mg, PO, once daily) • AZD9833 (300 mg, PO, once daily) • Fulvestrant (500 mg IM, Day 1, Day 15, Day 29, and 4-weekly thereafter)
Efficacy assessments. Assessment of tumour response. The assessment of tumour response per RECIST version 1.1 will be used to determine the clinical activity (assessed by PFS) and anti-tumour activity (assessed by ORR, clinical benefit rate [CBR]) of AZD9833 and fulvestrant.
Investigator's assessment of tumour response per RECIST version 1.1. Tumour response will be assessed by the Investigators per RECIST version 1.1 (Eisenhauer et al. 2009). From the Investigator's review of the imaging scans, the evaluation of TLs, NTLs and new lesions will be used to determine the overall visit response for each patient. […]

Where [2] appears, read: camizestrant 75 mg once daily, all patients, by Investigator.
The mark [3] stands for this setting: camizestrant 75 mg, subgroup with metastases to the liver and/or lungs.
[4] abbreviates: camizestrant 75 mg, subgroup with prior CDK4/6 inhibitor therapy.
[5] abbreviates: camizestrant 150 mg once daily, all patients, by Investigator.
The mark [6] stands for this setting: camizestrant 150 mg, subgroup with metastases to the liver and/or lungs.
[7] abbreviates: camizestrant 150 mg, subgroup with prior CDK4/6 inhibitor therapy.
The mark [8] stands for this setting: fulvestrant 500 mg once monthly injection, all patients, by Investigator.
Setting [9] is: fulvestrant 500 mg, ESR1m subgroup.
The mark [10] stands for this setting: fulvestrant 500 mg, subgroup with metastases to the liver and/or lungs.
Setting [11] is: fulvestrant 500 mg, subgroup with prior CDK4/6 inhibitor therapy.

Results on two compounds are retold here after patent US20240180893A1, “METHODS OF TREATMENT OF BREAST CANCER” (AstraZeneca AB, priority 2022, published 2024).

As to `C[C@@H]1Cc2c(ccc3[nH]ncc23)[C@@H](c2ccc(NC3CN(CCCF)C3)cn2)N1CC(F)(F)F` [camizestrant, N-(1-(3-fluoropropyl)azetidin-3-yl)-6-((6S,8R)-8-methyl-7-(2,2,2-trifluoroethyl)-6,7,8,9-tetrahydro-3H-pyrazolo[4,3-f]isoquinolin-6-yl)pyridin-3-amine], in the experiment on ESR1m ctDNA (camizestrant 75 mg and 150 mg, all timepoints vs cycle 1 day 1), the “Reduction in the level of ESR1m (ctDNA sVAF)” value is reported as roughly 100%. The “PFS events [no.]” value in experiment [1] (AZD9833 75 mg (n = 22), subgroup with mutation to the estrogen receptor (ESR1m)) is 15; in experiment [1] (AZD9833 150 mg (n = 26), subgroup with mutation to the estrogen receptor (ESR1m)), 22; in experiment [1] (camizestrant 75 mg (n = 43), subgroup with metastases to the liver and/or lungs), 31; in experiment [1] (camizestrant 150 mg (n = 43), subgroup with metastases to the liver and/or lungs) it was 32. Moreover, the “Hazard ratio vs fulvestrant” value stood at 0.33 in experiment [1] (AZD9833 75 mg, ESR1m subgroup); 0.55 in experiment [1] (AZD9833 150 mg, ESR1m subgroup); 0.43 in experiment [1] (setting [3]); 0.49 in experiment [1] (setting [4]); 0.55 in experiment [1] (setting [6]); 0.68 in experiment [1] (setting [7]). For the same compound, the “Median PFS” value in experiment [1] (AZD9833 75 mg, ESR1m subgroup) amounted to 6.3 months; in experiment [1] (AZD9833 150 mg, ESR1m subgroup), 9.2 months; in experiment [1] (camizestrant 75 mg tablet once daily, all patients, by Investigator), 7.2 months; in experiment [1] (setting [3]), 7.2 months; in experiment [1] (setting [4]), 5.5 months; in experiment [1] (camizestrant 150 mg tablet once daily, all patients, by Investigator) it was 7.7 months. In addition, the “Median PFS” value is 5.6 months in experiment [1] (setting [6]) and 3.8 months in experiment [1] (setting [7]). The “PFS events (%)” value in experiment [1] (AZD9833 75 mg, ESR1m subgroup) is given as “(68.2) %”; in experiment [1] (AZD9833 150 mg, ESR1m subgroup), “(84.6) %”; in experiment [1] (setting [3]), “(72.1) %”; in experiment [1] (setting [4]), “(76.3) %”; in experiment [1] (setting [6]), “(74.4) %”; in experiment [1] (setting [7]) it was “(78.4) %”. In experiment [1] (both camizestrant arms (75 mg and 150 mg), all comer population, by either Investigator or BICR), the “Improvement of PFS over fulvestrant” value is on record as “at least 3.5 months”. The “PFS events [n]” value in experiment [1] (camizestrant 75 mg (n = 38), subgroup with prior CDK4/6 inhibitor therapy) came to 29; in experiment [1] (camizestrant 150 mg (n = 37), subgroup with prior CDK4/6 inhibitor therapy), 29. Further, the “Hazard ratio for disease progression relative to fulvestrant” value is 0.58 in experiment [1] (setting [2]) and 0.67 in experiment [1] (setting [5]). The results for the “Proportion of patients without progression at 12 m” value in experiment [1] (setting [2]) and in experiment [1] (setting [5]) were 34.3% and 44.5%, respectively.
As for `C[C@]12CC[C@@H]3c4ccc(O)cc4C[C@@H](CCCCCCCCC[S+]([O-])CCCC(F)(F)C(F)(F)F)[C@H]3[C@@H]1CC[C@@H]2O` (some centres unmarked) [fulvestrant, reference compound], the “Reduction in ESR1m ctDNA” value in the experiment with ESR1m ctDNA (fulvestrant arm, compared with camizestrant) is on record as “the extent of the reduction is lower than that observed with camizestrant”. Also, the “PFS events [no.]” value turned out to be 31 in experiment [1] (fulvestrant 500 mg (n = 35), subgroup with mutation to the estrogen receptor (ESR1m)) and 39 in experiment [1] (fulvestrant 500 mg (n = 43), subgroup with metastases to the liver and/or lungs). In addition, the “PFS events [n]” value in experiment [1] (fulvestrant 500 mg (n = 37), subgroup with prior CDK4/6 inhibitor therapy) is 33. Moreover, the “Median PFS” value in experiment [1] (setting [8]) is on record as 3.7 months; in experiment [1] (setting [9]), 2.2 months; in experiment [1] (setting [10]), 2.0 months; in experiment [1] (setting [11]), 2.1 months. The “Proportion of patients without progression at 12 m” value in experiment [1] (setting [8]) is on record as 23.8%. The “PFS events (%)” value was “(88.6) %” in experiment [1] (setting [9]), “(90.7) %” in experiment [1] (setting [10]) and “(89.2) %” in experiment [1] (setting [11]).
